The values that follow come from US20120264928A1, “THERAPEUTIC PHARMACEUTICAL AGENT FOR DISEASES ASSOCIATED WITH DECREASE IN FUNCTION OF GNE PROTEIN, FOOD COMPOSITION, AND FOOD ADDITIVE” (JAPAN HEALTH SCIENCES FOUNDATION, priority 2009, published 2012).

This assay concerns primary cultured cells of myotubes derived from the DMRV model mice. The assay is described as follows: Amount of NeuAc by HPLC in myotubes from DMRV model mice. Format: cell-based. As to conditions: 100 or 500 μm Ac5GlcNAcol together with 10 mM ManNAc, three days. As to the method:
The skeletal muscle tissues collected from the DMRV human patients or the model mice were lightly washed with PBS or Hank's balanced saline and were treated with 0.25% trypsin for 5 minutes. The tissues were finely cut into several millimeters with ophthalmic scissors, were digested with 0.4% collagenase II/0.25% trypsin at 37° C. for 30 minutes, and were left still to collect supernatant. The precipitate was again treated with the enzyme liquid. After being left still, the precipitate was well suspended in a DMEM-Ham's F-12 culture medium. The tissue suspension was passed through a nylon mesh to remove the tissues. The washings and the supernatant were centrifuged to collect cells. […]
In the case that the sample was cultured cells, the cells were washed with PBS three times, and 400 p. […] The fluorescent derivative thus prepared was analyzed with HPLC (JASCO Corp.) using 0.05 to 5 nmol/μl Neu5Ac and Neu5Gc standards. The amount of protein from the tissue was measured with a Bio-Rad Protein Assay kit (Bio-Rad Laboratories).
ManNAc or Ac5GlcNAcol was added to the culture media of primary cultured cells of myotubes derived from the DMRV model mice such that the final concentration of ManNAc was 10 mM and the final concentration of Ac5GlcNAcol was […]. […] The amount of NeuAc in the cultured cells was measured by the HPLC method described above (N=3).

As for `CC(=O)N[C@@H](COC(C)=O)[C@@H](OC(C)=O)[C@H](OC(C)=O)[C@@H](COC(C)=O)OC(C)=O` [Ac5GlcNAcol, Penta-O-acetyl N-acetylglucosaminitol], the “amount of NeuAc in the myotubes” value is on record as “further increased the amount of NeuAc”.
